Counter-ions that a name gives are not always drawn. Ends that are not written are not given here.

One data set can be described thus: Solubility / hydrophilicity of mimotopic peptides, free or with amino-ADOOA-ADOOA linker. Type of data set: physicochemical.
Settings: not given
The text has this: Dimeric IgE complexing hinges upon disruption of the overhanging oligodendrocyte membrane surface and facilitated intracellular autoantibody inflow. […] Table 4a lists structurally unique, mimotopic, peptides serving as diagnostic and therapeutic antigens. […] Peptides used for initial diagnosis can be of maximum, unique length (column 3) or can be fractionated into pentameric, single epitope equivalents (column 5). […] The amide group is used for covalent Coupling to microplate wells. The 3,6-dioxaoctanoic acid2 construct, being very hydrophilic, solubilizes most al peptides, especially those that are relatively hydrophobic. The listed myelin, dimer-cornerstone peptide homologues (bold-highlighted) for MS therapy are useful because of their in-vivo: (a) net hydrophilicity for adequate solubility; […] The linker provides both increased hydrophilicity for enhanced solubility and serves as a point of attachment onto microtiter test plate wells. The peptide […] NO: 3) is an example of a soluble short peptide that is comprised of a singularly unique MOG surface pentamer, […]
DHSYQE [DHSYQE]: the “solubility of short therapeutic peptide” value is on record as “soluble”.
Regarding DNEVFGEA, the “hydrophilicity / solubilization when coupled with amino-ADOOA-ADOOA linker” value (“hydrophilicity / solubilization” for short) is given as “sufficiently hydrophilic”.
Turning to DNTFKD [DNTFKD], the “hydrophilicity / solubilization” value is listed as “sufficiently hydrophilic”.
The same measure, in the same setting: for HGRTQ [HGRTQ] the value was “solubilize readily”; for KDSHHPA [Lys Asp Ser His His Pro Ala], “solubilize readily”.
Same read-out and setting: for LQTIQE [LQTIQE] the value was “sufficiently hydrophilic”.
Take “Lys Gly Thr Gln Phe (KGTQF; listed as Homo sapiens) [KTGQF]”: the aggregation tendency result is “dual molecule aggregate-forming tendencies”.
As to NLHRTFE [Asn Leu His Arg Thr Phe Glu], the “hydrophilicity / solubilization” value is recorded as “sufficiently hydrophilic”.
In the case of PKNAW [PKNAW], the “hydrophilicity / solubilization” value is “sufficiently hydrophilic”.
QDTAVT [QDTAVT]: the “hydrophilicity / solubilization” value is “sufficiently hydrophilic”.
On to YKDSHHPA, for which the “hydrophilicity / solubilization” value is recorded as “solubilize readily”.

Assay in a further data set: not given
Conditions: Tables 3a-3e; from cited literature; CD4 T-helper cells; cited from earlier work.
For the compound `Fc1ccc([C@@H]2CCNC[C@H]2COc2ccc3c(c2)OCO3)cc1` [Paroxetine], the “Immunosuppressive Effects” value is reported as “Decreases CD4 T-Helper Cells”.

The same data set, now with this note: Tables 3a-3e; from cited literature; cited from earlier work.
For the compound `Cc1nnc2n1-c1ccc(Cl)cc1C(c1ccccc1)=NC2` [Alprazolam], the “Immunosuppressive Effects” value is on record as “Inhibits proliferative responses”.
Regarding `CC(C)c1c(C(=O)Nc2ccccc2)c(-c2ccccc2)c(-c2ccc(F)cc2)n1CC[C@@H](O)C[C@@H](O)CC(=O)O` [Atorvastatin], the “Immunosuppressive Effects” value was “Increases in IL-10 Production”.
As for `CN1C(=O)CN=C(c2ccccc2)c2cc(Cl)ccc21` [Diazepam], the “Immunosuppressive Effects” value is “Markedly Suppresses Antigen-”.
For the compound `O=C1NC(=O)C(c2ccccc2)(c2ccccc2)N1` [Dilantin, Phenytoin sodium], the “Immunosuppressive Effects” value is “Humoral Immune Suppressant”.
Take `CNCCC(Oc1ccc(C(F)(F)F)cc1)c1ccccc1` (stereo not drawn) [Fluoxethine]: the “Immunosuppressive Effects” value was “Decreases T Lymphocyte”.
Regarding `N[C@@H](Cc1cc(I)c(Oc2cc(I)c(O)c(I)c2)c(I)c1)C(=O)O` [Levoxyl, Levothyroxine], the “Immunosuppressive Effects” value is on record as “Inhibits Cytokine”.
For the compound `Nc1ccc(O)c(C(=O)O)c1` [Mesalazine], the “Immunosuppressive Effects” value was “Potent and Specific Inhibitor”.
On to `CC(C)c1nc(N(C)S(C)(=O)=O)nc(-c2ccc(F)cc2)c1/C=C/[C@@H](O)C[C@@H](O)CC(=O)O` [Rosuvastatin], for which the “Immunosuppressive Effects” value was “Post-Transcriptional Level”.
In the case of `COc1ccc(C(CN(C)C)C2(O)CCCCC2)cc1` (stereo not drawn) [Venlafaxine], the “Immunosuppressive Effects” value was “Suppresses pro-Inflammatory”.
With `NS(=O)(=O)Cc1noc2ccccc12` [Zonisamide], the “Immunosuppressive Effects” value is listed as “Suppression of IFN-gamma”.

Still in this data set, the particulars now being: Tables 3a-3e; from cited literature; hydrochloride; antigen-specific TH1 responses; cited from earlier work.
Regarding `CN[C@H]1CC[C@@H](c2ccc(Cl)c(Cl)c2)c2ccccc21` [Sertraline hydrochloride], the “Immunosuppressive Effects” value is given as “Suppression of Antigen-”.

Staying with this data set, now noted: Tables 3a-3e; from cited literature; splenocyte viability; cited from earlier work.
As for `Fc1ccc([C@@H]2CCNC[C@H]2COc2ccc3c(c2)OCO3)cc1` [Paroxetine], the “Immunosuppressive Effects” value was “Inhibit Splenocyte Viability”.

The record behind these values is US20140134197A1, “Mimotopic Peptides for the Diagnosis and Treatment of Multiple sclerosis” (priority 2011, published 2014).
